Consider 44 molecules from ChEMBL document CHEMBL1201862, “PubChem BioAssay data set” (2004).

Each structure is given as a SMILES string. Active and inactive are the calls of the source. Bounds are passed on as bounds.

A short description of experiment [1]: Luminescence Cell-Based Dose Confirmation HTS to Identify Activators of 5'UTR Stem-Loop Driven Alpha-Synuclein mRNA Translation in H4 Neuroglioblastoma Cells. [Related pubchem assays: 1829 (Project Summary), 1814 (Primary HTS)]. It counts as functional.
Experiment [2] in a line: Luminescence Cell-Based Dose Response HTS to Identify Activators of Luciferase Translation or Activity in H4 […] Cells. [Related pubchem assays: 1829 (Project Summary), 1814 (Primary HTS)]. The class given is functional.
The test system of another experiment is H4. As to the kind of experiment: Luminescence Cell-Based Dose Response HTS to Identify Activators of 5'UTR Stem-Loop Driven Prion Protein mRNA Translation in H4 Neuroglioblastoma Cells. [Related pubchem assays: 1829 (Project Summary), 1814 (Primary HTS)]. The class given is functional. The settings on record: Homo sapiens.
Experiment [3] can be described thus: HEp-2 cell cytotoxicity, dose response, cytotoxicity control for RSV inhibitor project, HTS (AID 2410). It counts as functional. The conditions noted are these: human respiratory syncytial virus.
Experiment [4] deals with T1, Heat shock factor protein 1 (Mus musculus, UniProt P38532).
T1 sequence (P38532 whole entry): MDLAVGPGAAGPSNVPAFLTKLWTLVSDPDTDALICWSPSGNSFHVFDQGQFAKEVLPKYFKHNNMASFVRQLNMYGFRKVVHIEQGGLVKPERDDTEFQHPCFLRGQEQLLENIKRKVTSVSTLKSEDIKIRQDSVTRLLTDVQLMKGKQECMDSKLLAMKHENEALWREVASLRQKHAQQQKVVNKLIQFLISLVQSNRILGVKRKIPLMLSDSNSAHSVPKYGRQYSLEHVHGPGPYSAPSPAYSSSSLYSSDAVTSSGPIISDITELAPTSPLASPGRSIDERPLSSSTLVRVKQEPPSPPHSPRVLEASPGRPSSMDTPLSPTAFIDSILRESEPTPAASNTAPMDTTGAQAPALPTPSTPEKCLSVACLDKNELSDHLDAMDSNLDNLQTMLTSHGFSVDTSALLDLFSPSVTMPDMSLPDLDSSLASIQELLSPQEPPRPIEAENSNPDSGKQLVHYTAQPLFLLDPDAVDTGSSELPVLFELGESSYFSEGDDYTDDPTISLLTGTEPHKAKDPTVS
Put plainly: HSF1 potentiators in luciferase reporter cells, confirmation, cell-based, NIH3T3, luminescence, dose retest (AID 435004).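 Also: stress induced by proteasome inhibitor MG132 added 30 min after compound; luciferase reporter driven by HSF1 response element in NIH3T3 cells; actives raise luminescence as potentiators of the MG132 stress response.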 It counts as functional.

In a further experiment the target is Cytochrome P450 2C19 (Homo sapiens, UniProt P33261). As to the kind of experiment: Cytochrome panel assay with activity outcomes. Panel member name: p450-cyp2c19 Compounds with AC50 equal or less than 10 uM are considered active. It counts as functional. The conditions noted are these: read-out: AC50.
Chain of Cytochrome P450 2C19 (P33261 whole entry): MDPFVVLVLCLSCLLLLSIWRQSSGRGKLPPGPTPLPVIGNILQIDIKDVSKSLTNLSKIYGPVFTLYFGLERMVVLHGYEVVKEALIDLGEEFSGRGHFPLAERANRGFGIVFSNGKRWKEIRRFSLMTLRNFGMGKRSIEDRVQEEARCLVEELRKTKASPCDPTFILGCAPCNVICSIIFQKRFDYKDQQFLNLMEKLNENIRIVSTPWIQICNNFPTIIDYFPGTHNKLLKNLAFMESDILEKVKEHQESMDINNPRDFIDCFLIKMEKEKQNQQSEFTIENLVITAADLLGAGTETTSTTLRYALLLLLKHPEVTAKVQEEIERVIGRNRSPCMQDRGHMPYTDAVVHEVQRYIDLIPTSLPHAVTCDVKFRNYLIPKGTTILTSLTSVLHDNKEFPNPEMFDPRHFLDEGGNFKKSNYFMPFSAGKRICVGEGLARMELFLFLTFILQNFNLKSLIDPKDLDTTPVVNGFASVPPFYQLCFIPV
In another experiment the target is Cytochrome P450 2D6 (Homo sapiens, UniProt P10635).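 Also: CYP2D6 member of a cytochrome P450 panel assay.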
Chain of Cytochrome P450 2D6 (P10635 whole entry): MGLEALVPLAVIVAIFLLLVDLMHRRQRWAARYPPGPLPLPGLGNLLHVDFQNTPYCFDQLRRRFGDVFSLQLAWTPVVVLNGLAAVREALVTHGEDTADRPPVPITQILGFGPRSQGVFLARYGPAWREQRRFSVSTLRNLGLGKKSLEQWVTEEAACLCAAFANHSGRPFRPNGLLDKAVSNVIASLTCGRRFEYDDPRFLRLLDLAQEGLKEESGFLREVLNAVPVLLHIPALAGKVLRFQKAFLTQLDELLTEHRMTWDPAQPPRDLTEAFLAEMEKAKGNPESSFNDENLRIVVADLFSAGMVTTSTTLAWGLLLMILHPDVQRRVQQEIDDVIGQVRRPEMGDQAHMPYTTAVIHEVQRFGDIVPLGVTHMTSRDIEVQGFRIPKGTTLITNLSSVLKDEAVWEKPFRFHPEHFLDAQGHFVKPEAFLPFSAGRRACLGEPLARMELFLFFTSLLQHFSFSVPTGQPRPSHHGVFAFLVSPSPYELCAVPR
For a further experiment, the target named is Cytochrome P450 2C9 (Homo sapiens, UniProt P11712).
Chain of Cytochrome P450 2C9 (P11712 whole entry): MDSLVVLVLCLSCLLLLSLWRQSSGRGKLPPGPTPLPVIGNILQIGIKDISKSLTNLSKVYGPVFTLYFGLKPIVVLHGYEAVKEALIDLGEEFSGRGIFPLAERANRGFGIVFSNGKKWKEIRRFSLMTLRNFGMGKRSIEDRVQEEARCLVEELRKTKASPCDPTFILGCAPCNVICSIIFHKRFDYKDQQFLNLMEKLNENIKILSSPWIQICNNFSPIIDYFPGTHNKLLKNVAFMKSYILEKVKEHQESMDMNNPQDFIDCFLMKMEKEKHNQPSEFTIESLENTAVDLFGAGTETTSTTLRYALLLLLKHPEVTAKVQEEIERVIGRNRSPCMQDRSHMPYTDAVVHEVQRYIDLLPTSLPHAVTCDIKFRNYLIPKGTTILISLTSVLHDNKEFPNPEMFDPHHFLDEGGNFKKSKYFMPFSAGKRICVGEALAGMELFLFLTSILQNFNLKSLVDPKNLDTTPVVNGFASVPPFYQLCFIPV
A further experiment concerns the target Cytochrome P450 3A4 (Homo sapiens, UniProt P08684).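 Also: CYP3A4 tested as one member of a cytochrome P450 panel screen.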
Experiment [5] has as its target T2, Rac GTPase-activating protein 1 (Homo sapiens, UniProt Q9H0H5).
T2 sequence (Q9H0H5 whole entry): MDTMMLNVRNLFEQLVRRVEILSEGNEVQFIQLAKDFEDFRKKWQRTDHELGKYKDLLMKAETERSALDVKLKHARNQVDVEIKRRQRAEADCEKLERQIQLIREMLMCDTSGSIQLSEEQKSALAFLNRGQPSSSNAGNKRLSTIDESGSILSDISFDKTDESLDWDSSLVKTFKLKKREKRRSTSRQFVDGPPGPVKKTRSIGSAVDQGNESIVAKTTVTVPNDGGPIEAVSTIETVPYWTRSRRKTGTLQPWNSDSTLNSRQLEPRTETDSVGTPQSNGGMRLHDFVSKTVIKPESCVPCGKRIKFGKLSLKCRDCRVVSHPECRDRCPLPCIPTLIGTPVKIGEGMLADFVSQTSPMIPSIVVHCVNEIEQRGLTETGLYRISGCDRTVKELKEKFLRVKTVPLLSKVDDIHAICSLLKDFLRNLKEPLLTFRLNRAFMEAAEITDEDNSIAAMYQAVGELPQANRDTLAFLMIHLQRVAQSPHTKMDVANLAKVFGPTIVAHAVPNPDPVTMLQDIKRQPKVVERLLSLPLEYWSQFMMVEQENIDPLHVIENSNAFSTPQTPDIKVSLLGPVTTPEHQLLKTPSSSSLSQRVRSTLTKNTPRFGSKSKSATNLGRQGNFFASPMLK
Put plainly: MgcRacGAP GTPase-activating activity inhibitors, confirmation, biochemical, ADP Hunter fluorescence, primary and confirmatory (AID 624330). The class given is functional.

In the next experiment the target is T3, Cytochrome P450 1A2 (Homo sapiens, UniProt P05177).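 Also: PubChem cytochrome P450 panel assay, CYP1A2 panel member.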
T3 sequence (P05177 whole entry): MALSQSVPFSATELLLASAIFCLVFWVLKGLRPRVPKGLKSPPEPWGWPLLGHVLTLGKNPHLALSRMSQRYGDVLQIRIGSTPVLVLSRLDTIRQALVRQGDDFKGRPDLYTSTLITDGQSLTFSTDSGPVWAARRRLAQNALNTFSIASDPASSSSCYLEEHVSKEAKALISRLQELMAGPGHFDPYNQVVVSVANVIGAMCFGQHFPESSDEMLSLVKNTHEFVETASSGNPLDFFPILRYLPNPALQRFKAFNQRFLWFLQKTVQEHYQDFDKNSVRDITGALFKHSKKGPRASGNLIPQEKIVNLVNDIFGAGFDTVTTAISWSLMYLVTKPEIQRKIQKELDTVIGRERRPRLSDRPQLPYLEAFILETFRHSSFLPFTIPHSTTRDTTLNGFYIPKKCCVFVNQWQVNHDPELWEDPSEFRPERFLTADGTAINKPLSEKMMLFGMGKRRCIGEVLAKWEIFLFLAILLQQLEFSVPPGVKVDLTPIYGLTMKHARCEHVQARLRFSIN

Chain of Cytochrome P450 3A4 (P08684 whole entry): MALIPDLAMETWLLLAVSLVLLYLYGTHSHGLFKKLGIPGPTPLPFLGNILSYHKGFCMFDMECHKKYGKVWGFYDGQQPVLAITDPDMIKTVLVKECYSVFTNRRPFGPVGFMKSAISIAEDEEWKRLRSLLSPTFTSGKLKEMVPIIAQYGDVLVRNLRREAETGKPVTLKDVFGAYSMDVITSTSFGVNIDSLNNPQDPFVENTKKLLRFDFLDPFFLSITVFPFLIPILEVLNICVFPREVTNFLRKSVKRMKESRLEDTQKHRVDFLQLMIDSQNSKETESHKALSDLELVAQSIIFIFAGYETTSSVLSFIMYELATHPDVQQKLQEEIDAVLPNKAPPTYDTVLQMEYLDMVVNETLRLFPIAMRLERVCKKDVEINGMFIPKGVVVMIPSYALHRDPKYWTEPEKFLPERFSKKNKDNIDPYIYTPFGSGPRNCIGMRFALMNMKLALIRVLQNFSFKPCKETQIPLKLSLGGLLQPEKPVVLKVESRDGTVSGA

Take `N#Cc1cnc2sc3ccccc3n2c1=N`: the results for the EC50 (in experiment [1]; in [2]; with H4) were 15.9 µM (active), 10.6 µM (active) and 11.7 µM (active), respectively.

Regarding `Cc1ccc(S(=O)(=O)N2CCC(=O)N(C(COCc3cccc(C)c3)Cc3ccccc3)CC2)cc1` (stereo unspecified), the CC50 in experiment [3] is 28.7 µM (active).

On to `CCc1nc2c(sc3nc4c(cc32)COC(C)(C)C4)c(=O)n1Cc1ccco1`, for which, in [4], the EC50 was > 260 µM (inactive).

Turning to `CC(Cc1ccccc1)/[N+]([O-])=C\c1ccc(C(F)(F)F)cc1` (stereo unspecified), the EC50 is 1.2 µM (active) in [1], 6.29 µM (active) in experiment [2] and 4.53 µM (active) in the experiment with H4.

Take `COc1cccc(Nc2ncc3ncc(=O)n(Cc4cccs4)c3n2)c1`: the results for the AC50 at Cytochrome P450 2C19, at Cytochrome P450 2D6 and on Cytochrome P450 2C9 were 3.98 µM (inconclusive), 3.98 µM (inconclusive) and 2.51 µM (inconclusive), respectively.

For the molecule `CC(C)(C)N(NS(=O)(=O)c1ccc(F)cc1)c1ccccc1`, the EC50 in [4] was > 260 µM (inactive).

For `Cc1ccccc1CN1CCN(CC(=O)NCCCN2CCN(c3ccc(F)cc3)CC2)C1=O`, the AC50 was 11.2 µM (inconclusive) at Cytochrome P450 2C19, 25.1 µM (inconclusive) on Cytochrome P450 3A4 and 12.6 µM (inconclusive) at Cytochrome P450 2C9.

As for `CC1CCN(C(=S)SCc2nc(N)nc(Nc3ccccc3)n2)CC1`, in experiment [3], the CC50 is 13.3 µM (active).

Regarding `CCc1cccc(NC(=O)c2cnn(-c3ccccc3)c2C)c1`, the CC50 in experiment [3] was 29.9 µM (active).

With `O=C(CSc1n[nH]c(-c2ccccc2)n1)c1ccccc1`, the figures for the EC50 (in [1]; in [2]; in the experiment on H4) were 15.3 µM (active), 5.83 µM (active) and 6.22 µM (active), respectively.

As to `CN1CCN(CCCNC(=O)c2cc3c(=O)n(C)c4ccccc4c3s2)CC1`, the figures for the EC50 (in [1]; in experiment [2]; in the experiment with H4) were > 120 µM (not active), 11.7 µM (active) and > 120 µM (not active), respectively.

Regarding `CCc1nnc(NC(=O)C2CCN(C(=O)NC3CCCCC3)CC2)s1`, the AC50 was 0.158 µM (inconclusive) at Cytochrome P450 2C19 and 20 µM (inconclusive) at Cytochrome P450 2C9.

Regarding `COc1ccc(CCNC(=O)C2CCCN(Cc3nc(-c4ccccc4C)oc3C)C2)cc1OC` (stereo unspecified), in experiment [4], the EC50 was > 260 µM (inactive).

As for `CS(=O)(=O)Nc1cccc(-c2nccc(-n3ccnc3)n2)c1`, the AC50 at Cytochrome P450 2C19 is 39.8 µM (inconclusive).

Turning to `CC(C)(C)c1ccc(C(=O)NCc2ccco2)cc1`, the EC50 in experiment [1] is 20.9 µM (active); in experiment [2] it was 31 µM (active); in the experiment on H4 it was 13.7 µM (active).

Regarding `O=c1c(Cl)cc(Cl)nn1-c1ccccc1`, the EC50 in [4] was 24.7 µM (active).

For `CN(C(=O)c1ccc(COc2ccccc2Br)o1)c1ccccc1`, the CC50 in [3] was 22.1 µM (active).

Consider `N#Cc1ccc(Oc2nc(C(N)=O)cc(-c3ccccc3)n2)cc1`, for which, at Cytochrome P450 2C19, the AC50 is 25.1 µM (inconclusive).

Take `COc1ccc(-c2cc3ccc(OCC(C)=O)cc3oc2=O)cc1`: the EC50 in [4] is > 260 µM (inactive).

`O=C1[C@@H]2Cc3c([nH]c4ccccc34)C(c3ccc([N+](=O)[O-])cc3)N2C(=O)CN1C1CC1` (stereo partly specified): in experiment [4], the EC50 is > 260 µM (inactive).

As to `C=C(CC1([C@@H](NP(=O)(c2ccccc2)c2ccccc2)[C@H]2C[C@@H]2CCN(C(=O)OCC)S(=O)(=O)c2ccc(C)cc2)CC1)c1ccccc1`, the AC50 is 1.26 µM (inconclusive) on Cytochrome P450 2C19 and 5.01 µM (inconclusive) on Cytochrome P450 2C9.

In the case of `COc1cc(NC(=O)COC(=O)/C=C/c2ccc(O)c(OC)c2)cc(OC)c1`, in [5], the IC50 was 51.7 µM (active).

As for `COc1ccccc1CNCCc1cccc(Cl)c1`, the IC50 in experiment [5] was 135 µM (active).

Take `COc1ccc(C(=O)N/N=C/c2ccc(N3CCOCC3)s2)cc1OC`: the IC50 in [5] is 110 µM (active).

With `COc1ccccc1OCC#CCn1ccnc1`, the IC50 in experiment [5] was 160 µM (active).

For `Cc1cccc(NC(=O)CSc2cc(C)c(C#N)c3nc4ccccc4n23)c1`, the EC50 in [4] is 6.87 µM (active).

In the case of `CCNc1ccc(S(=O)(=O)N(C)C)cc1NCC(=O)Nc1ccccc1Br`, in experiment [4], the EC50 is > 260 µM (inactive).

Turning to `CCOC(=O)Nc1ccc(S(=O)(=O)NCc2ccccc2)cc1`, the results for the AC50 at Cytochrome P450 2C19, at Cytochrome P450 2D6 and at Cytochrome P450 2C9 were 2.24 µM (inconclusive), 14.1 µM (inconclusive) and 5.62 µM (inconclusive), respectively.

With `COc1cc2c(c(OC)c1CC=C(C)C)C[C@H](c1ccc(O)cc1O)CO2` [GLYASPERIN D], the CC50 in experiment [3] was 15.3 µM (active).

`COc1ccccc1[C@@H]1C(c2cccc(Cl)c2)=NN(c2ccccc2)[C@H]1C(=O)N1CCOC1=O`: the CC50 in [3] was 33.2 µM (active).

In the case of `CCOc1ccc(/C=C2\CCC(C3CCCC3)C2=O)cc1` (stereo unspecified), the EC50 (in experiment [2]; in the experiment with H4) was > 120 µM (not active) each time.

In the case of `CCOC(=O)N/N=C/c1ccccc1F`, the AC50 on Cytochrome P450 2C19 was 35.5 µM (inconclusive).

Regarding `CCOc1cc(/C=C2/SC(=S)N(CC3CCCO3)C2=O)ccc1O` (stereo unspecified), in experiment [4], the EC50 was > 260 µM (inactive).

Consider `COC(=O)CCC(=O)Nc1cccc2ccccc12`, for which the AC50 at Cytochrome P450 2C19 is 20 µM (inconclusive).

Take `COc1cc(-c2c(-c3ccsc3)sc3ccccc23)cc(OC)c1OC`: in experiment [3], the CC50 was 33.7 µM (active).

For the molecule `OCCCN=C(S)Nc1ccc(Nc2ccccc2)cc1`, the IC50 in experiment [5] was 88 µM (active).

Regarding `Cc1cccc(-c2cccc(NC(=O)C3CCCN(C(=O)c4cccnc4)C3)c2)c1` (stereo unspecified), the EC50 in [4] was > 260 µM (inactive).

In the case of `O=C1CC(c2ccccc2)CC(O)=C1/C=N/c1ccc(O)cc1` (stereo unspecified), the IC50 in experiment [5] was 26 µM (active).

As to `N#Cc1ccc(S(=O)(=O)N2CCCN(c3nc4ccc(Cl)cc4s3)CC2)cc1`, the CC50 in [3] was > 50 µM (active).

`C[C@H](NC(=O)c1[nH]cnc1C(=O)N[C@@H](Cc1ccccc1)C(=O)OCc1ccccc1)C(=O)OC(C)(C)C`: the CC50 in experiment [3] was 24.8 µM (active).

For `CCc1ccc(NC(=O)C2CCN(S(=O)(=O)c3c(C)nc(O)nc3O)CC2)cc1`, at Cytochrome P450 2C19, the AC50 is 11.2 µM (inconclusive).

As for `Cc1ccc(-n2nc3c(=O)n(CCCC(=O)NCc4ccccc4C)nc(C)c3c2C)cc1`, the CC50 in experiment [3] is > 50 µM (active).

For `COc1cccc(OC)c1OCCCCN1CCCC1`, the concentration for half-maximal inhibition (IC50) in experiment [5] was 204 µM (active). The values for the AC50 at Cytochrome P450 2D6 and at Cytochrome P450 1A2 were 14.1 µM (inconclusive) and 15.8 µM (inconclusive), respectively.

For the molecule `COC(=O)c1sccc1NC(=O)c1cc(-c2ccc(C)cc2)nc2ccccc12`, the figures for the AC50 at Cytochrome P450 2C19 and at Cytochrome P450 1A2 were 10 µM (inconclusive) and 14.1 µM (inconclusive), respectively.
